These results are taken from patent US9326539B2, “Compositions comprising dietary fat complexers and methods for their use” (Soho Flordis International Pty. Ltd., priority 2002, dated 2016).

The series in a line: in vitro study of vegetable oil, water and cyclodextrin: band of wax-like complex. The format is physicochemical. As to conditions: vegetable oil 4 g, water 6 g, varying amounts of cyclodextrin (100-2,000 mg), centrifuged. As for the experimental part:
FIG. 9A-9C depicts the results of an in vitro study of vegetable oil (4 g), water (6 g) (with added food coloring for contrast) and varying amounts of (A) α-cyclodextrin (100-2,000 mg, right to left), (B) β-cyclodextrin or (C) γ-cyclodextrin. A band of “wax-like” material layered between the oil and aqueous phases is apparent in the tubes. […] Note the increasing size (right to left) of a white layer of un-reacted α-cyclodextrin in the bottom of the tubes. This material is displaced from solution by either the oil or the α-cyclodextrin-oil complex. These tubes were centrifuged in order to improve the definition of the layers. The “wax-like” complex is of such a consistency that all of the tubes except for the furthest two to the right can be inverted without leakage of the aqueous phase around the complex.
FIGS. 9A-9C depict the results of an in vitro study of vegetable oil (4 g), water (6 g) (with added food coloring for contrast) and varying amounts of (A) α-cyclodextrin (100-2,000 mg, right to left), (B) β-cyclodextrin or (C) γ-cyclodextrin. A band of “wax-like” material layered between the oil and aqueous phases is apparent in the tubes. […] Note the increasing size (right to left) of a white layer of un-reacted α-cyclodextrin in the bottom of the tubes. This material is displaced from solution by either the oil or the α-cyclodextrin-oil complex. These tubes were centrifuged in order to improve the definition of the layers. The “wax-like” complex is of such a consistency that all of the tubes in 9A except for the furthest two to the right can be inverted without leakage of the aqueous phase around the complex.
Thus one would not have expected α-cyclodextrin to complex triglyceride molecules because the molecules would not fit within the pore of the α α-cyclodextrin. […] The white substance in the bottom of the tubes is precipitated cyclodextrin.

For the compound `OC[C@H]1O[C@@H]2O[C@H]3[C@H](O)[C@@H](O)[C@@H](O[C@H]4[C@H](O)[C@@H](O)[C@@H](O[C@H]5[C@H](O)[C@@H](O)[C@@H](O[C@H]6[C@H](O)[C@@H](O)[C@@H](O[C@H]7[C@H](O)[C@@H](O)[C@@H](O[C@H]8[C@H](O)[C@@H](O)[C@@H](O[C@H]1[C@H](O)[C@H]2O)O[C@@H]8CO)O[C@@H]7CO)O[C@@H]6CO)O[C@@H]5CO)O[C@@H]4CO)O[C@@H]3CO` [β-cyclodextrin], the “band of wax-like material (complexed fat) between oil and aqueous phases” value is listed as “significantly less”.
As for `OC[C@H]1O[C@@H]2O[C@H]3[C@H](O)[C@@H](O)[C@@H](O[C@H]4[C@H](O)[C@@H](O)[C@@H](O[C@H]5[C@H](O)[C@@H](O)[C@@H](O[C@H]6[C@H](O)[C@@H](O)[C@@H](O[C@H]7[C@H](O)[C@@H](O)[C@@H](O[C@H]8[C@H](O)[C@@H](O)[C@@H](O[C@H]9[C@H](O)[C@@H](O)[C@@H](O[C@H]1[C@H](O)[C@H]2O)O[C@@H]9CO)O[C@@H]8CO)O[C@@H]7CO)O[C@@H]6CO)O[C@@H]5CO)O[C@@H]4CO)O[C@@H]3CO` [γ-cyclodextrin], the “band of wax-like material (complexed fat) between oil and aqueous phases” value is reported as “bearly noticeable”.
